Experimental data as given in US11000033B2, “Ketone or oxime compound, and herbicide” (NISSAN CHEMICAL CORPORATION, priority 2014, dated 2021).

Key:
Format in all cases: in vivo
[1] = system: beet; test: Test Example 5: effect on crop by foliage application, plastic box (symbol f); conditions: 320 g/ha, 3 weeks after application
Procedure, shortened: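 Greenhouse culture at 25° C. to 30° C. followed spot-like sowing into sterilized diluvial soil, with seed covered by roughly 1.5 cm of soil.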

[2] = system: Avena fatua; test: Test Example 4: herbicidal effect by soil treatment (symbol I)
Procedure, shortened: (§1)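 Seeds were sown in sterilized diluvial soil, covered with about 1.5 cm of soil, and the soil surface was sprayed with a water-diluted emulsion of the compound at a predetermined rate. Plants grew in a greenhouse at 25° C. to 30° C.; effects were scored visually 3 weeks after application.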

[3] = system: Galium spurium; test: Test Example 4: herbicidal effect by soil treatment (symbol Q)
Procedure, shortened: as §1

[4] = system: Monochoria vaginalis; test: Test Example 2: herbicidal activity, application during weed generation in submerged conditions (symbol C); conditions: Table 23; application herbicide amount 320 g/ha; grade 0-5 by criteria of Test Example 1
Procedure, shortened: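 Read-out: herbicidal effect on each species rated on a visual scale 3 weeks after treatment. Plants were raised together from seed in flooded alluvial soil (4 cm water) at 25° C. to 30° C. and treated at one to two leaves by water-surface application of diluted emulsion.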

[5] = system: Alopecurus myosuroides; test: Test Example 4: herbicidal effect by soil treatment (symbol J)
Procedure, shortened: as §1

[6] = system: Setaria viridis; test: Test Example 5: herbicidal effect by foliage application, plastic box (symbol G); conditions: 320 g/ha, 3 weeks after application
Procedure, shortened: (§2)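 Greenhouse foliar test: seedlings at 14 days, grown 25° C. to 30° C. in sterilized diluvial soil; compound applied as an aqueous dilution of an emulsion; response read 3 weeks after spraying.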

[7] = system: Digitaria ciliaris; test: Test Example 5: herbicidal effect by foliage application, plastic box (symbol F); conditions: 320 g/ha, 3 weeks after application
Procedure, shortened: as §2

[8] = system: transplanted rice plant; test: Test Example 1: effect on crop, application before weed generation in submerged conditions (symbol a); conditions: application herbicide amount 320 g/ha
Procedure, shortened: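 Rice at 2.5 leaf stage transplanted into submerged soil (4 cm depth) sown with three weed species; herbicide applied before weed emergence.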

[9] = system: rice; test: Test Example 4: effect on crop by soil treatment (symbol b); conditions: for b: directly sowed rice plant, effect on crop grade: application herbicide amount 320 g/ha
Procedure, shortened: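 Sterilized diluvial soil, spot sowing, ~1.5 cm soil cover; greenhouse 25–30° C.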

[10] = system: Leptochloa chinensis; test: Test Example 3: herbicidal effect by foliage application, Wagner pot (symbol D); conditions: application herbicide amount 320 g/ha
Procedure, shortened: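 Scoring took place 3 weeks after application, using fixed criteria. Plants had been raised from seed for 14 days at 25 to 30 °C in submerged alluvial soil before a diluted emulsion of the test compound was sprayed uniformly on the leaves.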

[11] = system: Chenopodium album; test: Test Example 4: herbicidal effect by soil treatment (symbol O); conditions: application herbicide amount 320 g/ha
Procedure, shortened: as §1

[12] = application herbicide amount 320 g/ha

| SMILES | f: beet, effect on crop grade [1] | I: Avena fatua, herbicidal effect grade [2, 12] | Q: Galium spurium, herbicidal effect grade [3, 12] | Herbicidal effect grade, C: Monochoria vaginalis [4] | J: Alopecurus myosuroides, herbicidal effect grade [5, 12] | G: Setaria viridis, herbicidal effect grade [6] | F: Digitaria ciliaris, herbicidal effect grade [7] | Effect grade on crop, a: transplanted rice plant [8] | b: directly sowed rice plant, effect on crop grade [9] | herbicidal effect on D (Leptochloa chinensis), grade 0-5 [10] | f: beet, effect on crop (criteria 0-5) [1] | I: Avena fatua, herbicidal effect grade ([2]; 320 g/ha) | Q: Galium spurium, herbicidal effect grade ([3]; 320 g/ha) | J: Alopecurus myosuroides, herbicidal effect grade ([5]; 320 g/ha) | G: Setaria viridis, herbicidal effect (criteria 0-5) [6] | F: Digitaria ciliaris, herbicidal effect (criteria 0-5) [7] | b: directly sowed rice plant, effect grade on crop ([9]; 320 g/ha) | O: Chenopodium album, herbicidal effect grade [11] |
| --- | --- | --- | --- | --- | --- | --- | --- | --- | --- | --- | --- | --- | --- | --- | --- | --- | --- | --- |
| CCC(CCC1CC(O)=C(c2c(C)cc(C)cc2C)C1=O)=NOC (mixture of isomers) [4-001] | 0 (Herbicidal ratio of 5% or lower (almost no effect)) | 0 (Herbicidal ratio of 5% or lower (almost no effect)) | 0 (Herbicidal ratio of 5% or lower (almost no effect)) | 0 (Herbicidal ratio of 5% or lower (almost no effect)) | 3 (Herbicidal ratio of 40% or higher and lower than 70%) | 1 (Herbicidal ratio of 5% or higher and lower than 20%) | 3 (Herbicidal ratio of 40% or higher and lower than 70%) | 0 (Herbicidal ratio of 5% or lower (almost no effect)) | 5 (Herbicidal ratio of 90% or more (almost completely withered)) | 3 (Herbicidal ratio of 40% or higher and lower than 70%) |  |  |  |  |  |  |  |  |
| CCc1cc(C#C[Si](C)(C)C)cc(C)c1C1=C(O)CC(CC(C)=NOC)C1=O (mixture of isomers) [6-008] | 0 (Herbicidal ratio of 5% or lower (almost no effect)) | 4 (Herbicidal ratio of 70% or higher and lower than 90%) | 0 (Herbicidal ratio of 5% or lower (almost no effect)) | 5 (Herbicidal ratio of 90% or more (almost completely withered)) | 4 (Herbicidal ratio of 70% or higher and lower than 90%) | 5 (Herbicidal ratio of 90% or more (almost completely withered)) | 0 (Herbicidal ratio of 5% or lower (almost no effect)) | 5 (Herbicidal ratio of 90% or more (almost completely withered)) | 5 (Herbicidal ratio of 90% or more (almost completely withered)) | 5 (Herbicidal ratio of 90% or more (almost completely withered)) |  |  |  |  |  |  |  |  |
| CON=C(C)CC1CC(O)=C(c2c(C)cc(C#CCO)cc2C)C1=O (mixture of isomers) [6-025] | 0 (Herbicidal ratio of 5% or lower (almost no effect)) | 2 (Herbicidal ratio of 20% or higher and lower than 40%) | 0 (Herbicidal ratio of 5% or lower (almost no effect)) | 0 (Herbicidal ratio of 5% or lower (almost no effect)) | 2 (Herbicidal ratio of 20% or higher and lower than 40%) | 5 (Herbicidal ratio of 90% or more (almost completely withered)) | 4 (Herbicidal ratio of 70% or higher and lower than 90%) | 3 (Herbicidal ratio of 40% or higher and lower than 70%) | 5 (Herbicidal ratio of 90% or more (almost completely withered)) | 5 (Herbicidal ratio of 90% or more (almost completely withered)) |  |  |  |  |  |  |  |  |
| CON=C(C)CC1CC(OS(=O)(=O)CCCCl)=C(c2c(C)cc(C)cc2C)C1=O (stereo not drawn) [1-142] |  |  |  |  |  |  |  | 5 (Herbicidal ratio of 90% or more (almost completely withered)) |  | 5 (Herbicidal ratio of 90% or more (almost completely withered)) | 3 (Herbicidal ratio of 40% or higher and lower than 70%) | 3 (Herbicidal ratio of 40% or higher and lower than 70%) | 0 (Herbicidal ratio of 5% or lower (almost no effect)) | 5 (Herbicidal ratio of 90% or more (almost completely withered)) | 5 (Herbicidal ratio of 90% or more (almost completely withered)) | 5 (Herbicidal ratio of 90% or more (almost completely withered)) | 5 (Herbicidal ratio of 90% or more (almost completely withered)) |  |
| CCC(=O)CCC1CC(O)=C(c2c(C)cc(C)cc2C)C1=O (stereo not drawn) [5-001] |  | 0 (Herbicidal ratio of 5% or lower (almost no effect)) | 0 (Herbicidal ratio of 5% or lower (almost no effect)) | 0 (Herbicidal ratio of 5% or lower (almost no effect)) | 2 (Herbicidal ratio of 20% or higher and lower than 40%) | 3 (Herbicidal ratio of 40% or higher and lower than 70%) | 4 (Herbicidal ratio of 70% or higher and lower than 90%) | 0 (Herbicidal ratio of 5% or lower (almost no effect)) | 5 (Herbicidal ratio of 90% or more (almost completely withered)) | 3 (Herbicidal ratio of 40% or higher and lower than 70%) |  |  |  |  |  |  |  |  |
| CON=C(C)CC1CC(O)=C(c2c(C)cc(Br)cc2C)C1=O (stereo not drawn) [6-003] | 0 (Herbicidal ratio of 5% or lower (almost no effect)) | 3 (Herbicidal ratio of 40% or higher and lower than 70%) |  | 3 (Herbicidal ratio of 40% or higher and lower than 70%) | 5 (Herbicidal ratio of 90% or more (almost completely withered)) | 5 (Herbicidal ratio of 90% or more (almost completely withered)) | 5 (Herbicidal ratio of 90% or more (almost completely withered)) | 5 (Herbicidal ratio of 90% or more (almost completely withered)) | 5 (Herbicidal ratio of 90% or more (almost completely withered)) | 5 (Herbicidal ratio of 90% or more (almost completely withered)) |  |  |  |  |  |  |  | 0 (Herbicidal ratio of 5% or lower (almost no effect)) |
| CON=C(C)CC1CC(O)=C(c2c(C)cc(-c3ccccc3)cc2C)C1=O (stereo not drawn) [6-015] | 0 (Herbicidal ratio of 5% or lower (almost no effect)) | 0 (Herbicidal ratio of 5% or lower (almost no effect)) |  | 5 (Herbicidal ratio of 90% or more (almost completely withered)) | 5 (Herbicidal ratio of 90% or more (almost completely withered)) | 5 (Herbicidal ratio of 90% or more (almost completely withered)) | 5 (Herbicidal ratio of 90% or more (almost completely withered)) | 5 (Herbicidal ratio of 90% or more (almost completely withered)) | 5 (Herbicidal ratio of 90% or more (almost completely withered)) | 5 (Herbicidal ratio of 90% or more (almost completely withered)) |  |  |  |  |  |  |  | 3 (Herbicidal ratio of 40% or higher and lower than 70%) |
| CON=C(C)CC1CC(O)=C(c2c(C)cc(C)cc2Br)C1=O (stereo not drawn) [6-038] | 0 (Herbicidal ratio of 5% or lower (almost no effect)) | 2 (Herbicidal ratio of 20% or higher and lower than 40%) |  | 1 (Herbicidal ratio of 5% or higher and lower than 20%) | 5 (Herbicidal ratio of 90% or more (almost completely withered)) | 5 (Herbicidal ratio of 90% or more (almost completely withered)) | 5 (Herbicidal ratio of 90% or more (almost completely withered)) | 5 (Herbicidal ratio of 90% or more (almost completely withered)) | 5 (Herbicidal ratio of 90% or more (almost completely withered)) | 5 (Herbicidal ratio of 90% or more (almost completely withered)) |  |  |  |  |  |  |  | 0 (Herbicidal ratio of 5% or lower (almost no effect)) |
